Test results: patent publication EP2030621A1, “Novel substituted pyrimidines as cysteine protease inhibitors” (GLAXO GROUP LIMITED, priority 2007, dated 2009)
Counter-ions that a name gives are not always drawn.

What follows are compounds tested on Plasmodium falciparum parasite (assay: Whole cell assay: whole cell activity against the parasite). Conditions: not given.
Format: cell-based
From the text: Compounds can be evaluated for whole cell actvity against the Plasmadium falciparum parasite according to the procedure described in Sijwali S. and Rosenthal P. J., (2004) Proceedings of the National Academy of Sciences of the United States of America (PNAS) 101(13), 4384-4389 (see in particular "Measurement of Parasite Growth rates and Inhibitor Sensitivity" on page 4385); IC50 values can be calculated as described in Singh A. and Rosenthal P. J., (2001) Antimicrobial Agents and Chemotherapy 45(3), 949-951 (see in particular page 950, first column); synchronised parasites can be prepared as described in Divo A. A. et al., (1985) Protozool. 32, 59-64. 3) In vitro models to evaluate activity against bone metastasis

First: CN1CCN(c2ncc(C(=O)NN(c3nc(C#N)ncc3Cl)C3CCCC3)s2)CC1 [Example 77]
Second: CN1CCC(CN2CCN(Cc3ccc(C(=O)NN(c4nc(C#N)ncc4Br)C4CCCC4)cc3)CC2)CC1 [Example 7, N'-(5-bromo-2-cyano-4-pyrimidinyl)-N'-cyclopentyl-4-({4-[(1-methyl-4-piperidinyl)methyl]-1-piperazinyl}methyl)benzohydrazide trifluoroacetate]
The IC50 of the first is higher: 15 to 150 nM for the first, 1 to 2.5 nM for the second.

Same assay, conditions: Plasmodium falciparum

CN1CCN(C2CCN(Cc3cccc(C(=O)NN(c4nc(C#N)ncc4Br)C4CCCCC4)c3)CC2)CC1 [Example 20, N'-(5-bromo-2-cyano-4-pyrimidinyl)-N'-cyclohexyl-3-{[4-(4-methyl-1-piperazinyl)-1-piperidinyl]methyl}benzohydrazide trifluoroacetate] and CN1CCN(C2CCN(Cc3ccc(C(=O)NN(c4nc(C#N)ncc4Br)C4CCCC4)cc3)CC2)CC1 [Example 10, N'-(5-bromo-2-cyano-4-pyrimidinyl)-N'-cyclopentyl-4-{[4-(4-methyl-1-piperazinyl)-piperidinyl]methyl}benzohydrazide trifluoroacetate] fall in the same range of IC50: 2.5 to 15 nM for the first, 2.5 to 15 nM for the second.

CN1CCN(c2ccc(C(=O)NN(c3nc(C#N)ncc3Cl)C3CCCC3)cc2)CC1 [Example 52, N'-(5-chloro-2-cyano-4-pyrimidinyl)-N'-cyclopentyl-4-(4-methyl-1-piperazinyl)benzohydrazide trifluoroacetate] and CN1CCN(Cc2ccc(C(=O)NN(c3nc(C#N)ncc3Cl)C3CCCCC3)cc2)CC1 [Example 51, N'-(5-chloro-2-cyano-4-pyrimidinyl)-N'-cyclohexyl-4-[(4-methyl-1-piperazinyl)methyl]benzohydrazide trifluoroacetate] fall in the same range of IC50: 15 to 150 nM for the first, 15 to 150 nM for the second.

First: CCN(Cc1ccc(C(=O)NN(c2nc(C#N)ncc2Cl)C2CCCC2)cc1)C1CCCCC1 [Example 69, N'-(5-chloro-2-cyano-4-pyrimidinyl)-4-{[cyclohexyl(ethyl)amino]methyl}-N'-cyclopentylbenzohydrazide trifluoroacetate]
Second: CC(C)N(Cc1ccc(C(=O)NN(c2nc(C#N)ncc2Cl)C2CCCC2)cc1)C1CCCCC1 [Example 75, N'-(5-chloro-2-cyano-4-pyrimidinyl)-4-{[cyclohexyl(1-methylethyl)amino]methyl}-N'-cyclopentylbenzohydrazide trifluoroacetate]
The IC50 of the first is lower: 2.5 to 15 nM for the first, 15 to 150 nM for the second. The first is the more potent here.

N#Cc1ncc(Br)c(N(NC(=O)c2ccc(CN3CCC(N4CCOCC4)CC3)cc2)C2CCCC2)n1 [Example 6, N'-(5-bromo-2-cyano-4-pyrimidinyl)-N'-cyclopentyl-4-{[4-(4-morpholinyl)-1-piperidinyl]methyl}benzohydrazide trifluoroacetate] and N#Cc1ncc(Br)c(N(NC(=O)c2cccc(CN3CCC(N4CCOCC4)CC3)c2)C2CCCC2)n1 [Example 13, N'-(5-bromo-2-cyano-4-pyrimidinyl)-N'-cyclopentyl-3-{[4-(4-morpholinyl)-1-piperidinyl]methyl}benzohydrazide trifluoroacetate] fall in the same range of IC50: 15 to 150 nM for the first, 15 to 150 nM for the second.

First: CC1CCC(N(NC(=O)c2ccc(CN3CCN(CC4CCN(C)CC4)CC3)cc2)c2nc(C#N)ncc2Br)C1 (mixture of isomers) [Example 5, N'-(5-bromo-2-cyano-4-pyrimidinyl)-N'-(3-methylcyclopentyl)-4-({4-[(1-methyl-4-piperidinyl)methyl]-1-piperazinyl}methyl)benzohydrazide trifluoroacetate]
Second: CN1CCC(CN2CCN(Cc3ccc(C(=O)NN(c4nc(C#N)ncc4Br)C4CCOCC4)cc3)CC2)CC1 [Example 30, N'-(5-Bromo-2-cyano-4-pyrimidiny)-4-({4-[(1-methyl-4-piperidinyl)methyl]-1-piperazinyl}methyl)-N'-(tetrahydro-2H-pyran-4-yl)benzohydrazide trifluoroacetate]
The IC50 of the first is lower: 2.5 to 15 nM for the first, 15 to 150 nM for the second.

CN1CCN(Cc2ccc(-c3ccc(C(=O)NN(c4nc(C#N)ncc4Br)C4CCCC4)cn3)cc2)CC1 [Example 46, N'-(5-bromo-2-cyano-4-pyrimidinyl)-N'-cyclopentyl-6-{4-[(4-methyl-1-piperazinyl)methyl]phenyl}-3-pyridinecarbohydrazide trifluoroacetate] and CN1CCN(Cc2ccc(C(=O)NN(c3nc(C#N)ncc3Br)C3CCCCC3)cc2)CC1 [Example 16, N'-(5-bromo-2-cyano-4-pyrimidinyl)-N'-cyclohexyl-4-[(4-methyl-1-piperazinyl)methyl]benzohydrazide trifluoroacetate] fall in the same range of IC50: 2.5 to 15 nM for the first, 2.5 to 15 nM for the second.

CCCCN(C)Cc1ccc(C(=O)NN(c2nc(C#N)ncc2Cl)C2CCCC2)cc1 [Example 57, 4-{[butyl(methyl)amino]methyl}-N'-(5-chloro-2-cyano-4-pyrimidinyl)-N'-cyclopentylbenzohydrazide trifluoroacetate] and CN(CC(=O)N(C)C)Cc1ccc(C(=O)NN(c2nc(C#N)ncc2Cl)C2CCCC2)cc1 [Example 60, N^2-[(4-{[2-(5-chloro-2-cyano-4-pyrimidinyl)-2-cyclopentylhydrazino]carbonyl}phenyl)methyl]-N^1,N^1,N^2-trimethylglycinamide trifluoroacetate] fall in the same range of IC50: 15 to 150 nM for the first, 15 to 150 nM for the second.

C[C@@H]1CCC[C@H]1N(NC(=O)c1ccc(F)cc1)c1nc(C#N)ncc1Br (racemic) [Example 43, N'-(5-bromo-2-cyano-4-pyrimidinyl)-4-fluoro-N'-[(1R,2R+1S,2S))-2-methylcyclopentyl]benzohydrazide trifluoroacetate] and C[C@H]1CCC[C@H]1N(NC(=O)c1ccc(CN2CCN(C)CC2)cc1)c1nc(C#N)ncc1Br (racemic) [Example 2, N'-(5-bromo-2-cyano-4-pyrimidinyl)-N'-[(1R,2S+1S,2R)-2-methylcyclopentyl]-4-[(4-methyl-1-piperazinyl)methyl]benzohydrazide trifluoroacetate] fall in the same range of IC50: 15 to 150 nM for the first, 15 to 150 nM for the second.

CN1CCN(C(=O)C2CCN(Cc3ccc(C(=O)NN(c4nc(C#N)ncc4Br)C4CCCCC4)cc3)CC2)CC1 [Example 22, N'-(5-bromo-2-cyano-4-pyrimidinyl)-N'-cyclohexyl-4-({4-[(4-methyl-1-piperazinyl)carbonyl]-1-piperidinyl}methyl)benzohydrazide trifluoroacetate] and CN1CCN(C(=O)C2CCN(Cc3ccc(C(=O)NN(c4nc(C#N)ncc4Br)C4CCCC4)cc3)CC2)CC1 [Example 9, N'-(5-bromo-2-cyano-4-pyrimidinyl)-N'-cyclopentyl-4-({4-[(4-methyl-1-piperazinyl)carbonyl]-1-piperidinyl}methyl)benzohydrazide trifluoroacetate] fall in the same range of IC50: 2.5 to 15 nM for the first, 2.5 to 15 nM for the second.

CN1CCN(C2CCN(Cc3ccc(C(=O)NN(c4nc(C#N)ncc4Br)C4CCN(C(=O)OCc5ccccc5)CC4)cc3)CC2)CC1 [Example 48, Phenylmethyl 4-{1-(5-bromo-2-cyano-4-pyrimidinyl)-2-[(4-{[4-(4-methyl-1-piperazinyl)-1-piperidinyl]methyl}phenyl)carbonyl]hydrazino}-1-piperidinecarboxylate triflouroacetate] and CN1CCN(C(=O)C2CCN(Cc3ccc(C(=O)NN(c4nc(C#N)ncc4Br)C4CCOCC4)cc3)CC2)CC1 [Example 32, N'-(5-Bromo-2-cyano-4-pyrimidinyl)-4-({4-[(4-methyl-1-piperazinyl)carbonyl]-1-piperidinyl}methyl)-N'-(tetrahydro-2H-pyran-4-yl)benzohydrazide trifluoroacetate] fall in the same range of IC50: 15 to 150 nM for the first, 15 to 150 nM for the second.

N#Cc1ncc(Br)c(N(NC(=O)c2ccc(CN3CC(N4CCCC4)C3)cc2)C2CCOCC2)n1 [Example 33, N'-(5-bromo-2-cyano-4-pyrimidinyl)-4-{[3-(1-pyrrolidinyl)-1-azetidinyl]methyl}-N'-(tetrahydro-2H-pyran-4-yl)benzohydrazide trifluoroacetate] and CN1CCC(CN2CCN(Cc3ccc(C(=O)NN(c4nc(C#N)ncc4Cl)C4CCOCC4)cc3)CC2)CC1 [Example 35, N'-(5-Chloro-2-cyano-4-pyrimidinyl)-4-({4-[(1-methyl-4-piperidiny)methyl]-1-piperazinyl}methyl)-N'-(tetrahydro-2H-pyran-4-yl)benzohydrazide trifluoroacetate] fall in the same range of IC50: 15 to 150 nM for the first, 15 to 150 nM for the second.

CC(C)N(Cc1ccc(C(=O)NN(c2nc(C#N)ncc2Cl)C2CCCC2)cc1)C(C)C [Example 72, trifluoroacetate] and CCN(CCCNC(=O)OC(C)(C)C)Cc1ccc(C(=O)NN(c2nc(C#N)ncc2Cl)C2CCCC2)cc1 [Example 81, 1,1-dimethylethyl {3-[[(4-{[2-(5-chloro-2-cyano-4-pyrimidinyl)-2-cyclopentylhydrazino]carbonyl}phenyl)methyl](ethyl)amino]propyl}carbamate] fall in the same range of IC50: 2.5 to 15 nM for the first, 2.5 to 15 nM for the second.

First: N#Cc1ncc(Cl)c(N(NC(=O)c2ccc(CN3CCC(O)CC3)cc2)C2CCCC2)n1 [Example 70, N'-(5-chloro-2-cyano-4-pyrimidinyl)-N'-cyclopentyl-4-[(4-hydroxy-1-piperidinyl)methyl]benzohydrazide trifluoroacetate]
Second: CN1CCC(CN2CCN(Cc3ccc(C(=O)NN(c4nc(C#N)ncc4Br)C4CCCCC4)cc3)CC2)CC1 [Example 19, N'-(5-bromo-2-cyano-4-pyrimidinyl)-N'-cyclohexyl-4-({4-[(1-methyl-4-piperidinyl)methyl]-1-piperazinyl}methyl)benzohydrazide trifluoroacetate]
The IC50 of the first is higher: 15 to 150 nM for the first, 2.5 to 15 nM for the second. The second is the more potent here.

Same assay, conditions: dihydrochloride

Compound CN1CCN(C2CCN(Cc3ccc(C(=O)NN(c4nc(C#N)ncc4Cl)C4CCCCC4)cc3)CC2)CC1 [Example 41, N'-(5-chloro-2-cyano-4-pyrimidinyl)-N'-cyclohexyl-4-{[4-(4-methyl-1-piperazinyl)-1-piperidinyl]methyl}benzohydrazide dihydrochloride] has an IC50 of 1 to 2.5 nM.
